Assay [1] in a line: Inhibition of SARS coronavirus Mpro using MCA-AVLQSGFR-Lys(Dnp)-Lys-NH as substrate by fluorescence assay. Also on record: species or system Severe acute respiratory syndrome-related coronavirus.
The test system of assay [2] is Severe acute respiratory syndrome-related coronavirus. The note with it: 2 to 4 uM.
The test system is the same in assay [3].

Each structure is given as a SMILES string. Active and inactive are the calls of the source. The rule behind the calls is not given here.

On to `CCOC(=O)/C=C/[C@H](C[C@@H]1CCNC1=O)NC(=O)[C@H](CCC(C)C)NC(=O)[C@@H](NC(=O)[C@@H](NC(=O)c1ccco1)C(C)C)C(C)C`, for which the Ki (commonly the dissociation constant of the complex between target and ligand, obtained from inhibition or displacement) in assay [1] was 6.7 µM. `Brc1ccc(SSc2ncccn2)cc1`: the inhibition entry in assay [2] was “Active”. Take `Clc1ccc(SSc2nnco2)cc1`: in assay [3], the alphaKi stood at 0.2 µM.

The values above are taken from ChEMBL document CHEMBL4118071, “Discovery of unsymmetrical aromatic disulfides as novel inhibitors of SARS-CoV main protease: Chemical synthesis, biological evaluation, molecular docking and 3D-QSAR study” (Eur J Med Chem, 2017).
